Laboratory results from ChEMBL document CHEMBL4043168, “The design and SAR of a novel series of 2-aminopyridine based LRRK2 inhibitors” (Bioorg Med Chem Lett, 2017).

Experiments:
[1] = target: Serine/threonine-protein kinase Nek9 (Homo sapiens) (UniProt Q8TD19); test: Inhibition of NEK9 conserved Lys2 (DIKTLNIFLTK) in human PBMC at 1 uM
[2] = target: T1, Tyrosine-protein kinase JAK3 (Homo sapiens) (UniProt P52333); test: Inhibition of JAK3 domain2 conserved Lys1 (YDPLGDNTGALVAVKQLQHSGPDQQR) in human PBMC at 0.1 uM
T1 sequence (whole entry): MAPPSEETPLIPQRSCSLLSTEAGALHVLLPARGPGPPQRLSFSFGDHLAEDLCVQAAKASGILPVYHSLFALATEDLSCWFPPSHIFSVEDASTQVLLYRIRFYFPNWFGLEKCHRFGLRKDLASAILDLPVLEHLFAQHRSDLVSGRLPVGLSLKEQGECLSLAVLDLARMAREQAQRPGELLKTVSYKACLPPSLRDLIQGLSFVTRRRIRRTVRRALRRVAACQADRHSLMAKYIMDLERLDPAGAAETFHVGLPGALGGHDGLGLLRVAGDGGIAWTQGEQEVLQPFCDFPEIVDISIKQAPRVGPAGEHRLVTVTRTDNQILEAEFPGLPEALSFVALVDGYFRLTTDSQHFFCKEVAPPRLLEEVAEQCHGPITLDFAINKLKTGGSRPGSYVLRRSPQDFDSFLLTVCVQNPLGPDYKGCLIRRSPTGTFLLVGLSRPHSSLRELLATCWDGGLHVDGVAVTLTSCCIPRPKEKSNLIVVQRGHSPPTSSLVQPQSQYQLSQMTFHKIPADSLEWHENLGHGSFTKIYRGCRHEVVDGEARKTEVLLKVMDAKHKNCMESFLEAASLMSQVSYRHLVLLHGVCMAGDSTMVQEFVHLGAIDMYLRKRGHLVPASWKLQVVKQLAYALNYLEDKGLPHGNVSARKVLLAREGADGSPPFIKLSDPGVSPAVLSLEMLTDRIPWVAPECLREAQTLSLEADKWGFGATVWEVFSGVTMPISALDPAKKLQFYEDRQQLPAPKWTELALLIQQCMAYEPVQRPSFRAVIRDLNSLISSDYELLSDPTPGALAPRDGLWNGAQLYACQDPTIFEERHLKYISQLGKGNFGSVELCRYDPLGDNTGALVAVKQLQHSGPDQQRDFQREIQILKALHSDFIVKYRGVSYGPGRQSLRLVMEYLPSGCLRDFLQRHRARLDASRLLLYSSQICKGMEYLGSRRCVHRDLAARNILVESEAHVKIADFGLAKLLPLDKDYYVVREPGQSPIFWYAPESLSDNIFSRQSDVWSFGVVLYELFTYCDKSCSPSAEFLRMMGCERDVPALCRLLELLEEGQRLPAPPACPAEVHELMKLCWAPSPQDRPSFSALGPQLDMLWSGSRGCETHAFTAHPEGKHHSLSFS

[3] = target: RAC-beta serine/threonine-protein kinase (Homo sapiens) (UniProt P31751); test: Inhibition of AKT2 labeling at ATP binding site (GTFGKVILVR) in human PBMC at 1 uM
Chain of RAC-beta serine/threonine-protein kinase (Homo sapiens) (P31751 whole entry): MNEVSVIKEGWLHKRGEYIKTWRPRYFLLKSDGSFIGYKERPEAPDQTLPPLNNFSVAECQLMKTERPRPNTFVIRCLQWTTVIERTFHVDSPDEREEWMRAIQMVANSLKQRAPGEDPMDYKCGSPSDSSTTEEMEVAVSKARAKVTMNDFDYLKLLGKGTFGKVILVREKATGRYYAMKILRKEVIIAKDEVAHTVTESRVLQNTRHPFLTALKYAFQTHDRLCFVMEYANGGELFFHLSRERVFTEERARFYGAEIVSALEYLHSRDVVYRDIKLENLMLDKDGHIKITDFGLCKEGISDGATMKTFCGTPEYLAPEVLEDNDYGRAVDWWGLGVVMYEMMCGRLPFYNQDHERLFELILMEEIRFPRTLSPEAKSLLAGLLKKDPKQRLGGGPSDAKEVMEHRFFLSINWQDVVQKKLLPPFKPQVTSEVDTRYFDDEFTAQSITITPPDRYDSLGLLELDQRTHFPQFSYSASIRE

[4] = target: Tyrosine-protein kinase BTK (Homo sapiens) (UniProt Q06187); test: Inhibition of BTK labeling at activation Loop (YVLDDEYTSSVGSKFPVR) in human PBMC at 1 uM
Chain of Tyrosine-protein kinase BTK (Homo sapiens) (Q06187 whole entry): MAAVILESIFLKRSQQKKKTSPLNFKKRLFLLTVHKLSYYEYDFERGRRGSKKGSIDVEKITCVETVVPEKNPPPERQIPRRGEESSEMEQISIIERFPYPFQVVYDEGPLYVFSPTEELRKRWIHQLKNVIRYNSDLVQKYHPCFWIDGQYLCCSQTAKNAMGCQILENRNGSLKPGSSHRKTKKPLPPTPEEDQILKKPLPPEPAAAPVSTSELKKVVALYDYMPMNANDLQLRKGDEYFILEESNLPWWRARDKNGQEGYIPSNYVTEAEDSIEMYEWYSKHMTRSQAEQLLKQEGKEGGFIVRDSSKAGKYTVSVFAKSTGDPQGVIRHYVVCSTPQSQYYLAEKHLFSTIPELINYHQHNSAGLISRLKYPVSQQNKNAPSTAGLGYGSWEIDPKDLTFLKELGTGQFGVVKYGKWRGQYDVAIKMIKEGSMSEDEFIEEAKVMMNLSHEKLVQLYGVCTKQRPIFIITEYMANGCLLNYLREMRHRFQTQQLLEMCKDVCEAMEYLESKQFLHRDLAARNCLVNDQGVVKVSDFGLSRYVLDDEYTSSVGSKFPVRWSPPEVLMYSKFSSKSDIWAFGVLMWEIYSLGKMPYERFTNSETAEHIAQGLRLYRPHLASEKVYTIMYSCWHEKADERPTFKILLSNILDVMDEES

[5] = target: Serine/threonine-protein kinase 32C (Homo sapiens) (UniProt Q86UX6); test: Inhibition of YANK3 conserved Lys2 (DVKPDNILLDER) in human PBMC at 1 uM
Chain of Serine/threonine-protein kinase 32C (Homo sapiens) (Q86UX6 whole entry): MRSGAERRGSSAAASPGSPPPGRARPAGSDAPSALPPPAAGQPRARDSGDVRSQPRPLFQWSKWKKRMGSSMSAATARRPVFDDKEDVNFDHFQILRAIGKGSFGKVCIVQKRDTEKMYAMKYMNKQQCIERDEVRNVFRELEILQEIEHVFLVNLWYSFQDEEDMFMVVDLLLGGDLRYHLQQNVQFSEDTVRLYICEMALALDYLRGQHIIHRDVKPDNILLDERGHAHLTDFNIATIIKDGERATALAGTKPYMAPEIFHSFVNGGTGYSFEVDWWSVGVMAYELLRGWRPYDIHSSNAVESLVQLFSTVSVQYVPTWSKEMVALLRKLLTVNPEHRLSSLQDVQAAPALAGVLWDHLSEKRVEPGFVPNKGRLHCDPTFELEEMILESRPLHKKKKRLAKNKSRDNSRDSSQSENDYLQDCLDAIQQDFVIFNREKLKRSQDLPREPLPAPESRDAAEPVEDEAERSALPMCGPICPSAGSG

[6] = target: T2, STE20-related kinase adapter protein alpha (Homo sapiens) (UniProt Q7RTN6); test: Inhibition of STLK5 conserved Lys2 (SVKASHILISVDGK) in human PBMC at 0.1 uM
T2 sequence (whole entry): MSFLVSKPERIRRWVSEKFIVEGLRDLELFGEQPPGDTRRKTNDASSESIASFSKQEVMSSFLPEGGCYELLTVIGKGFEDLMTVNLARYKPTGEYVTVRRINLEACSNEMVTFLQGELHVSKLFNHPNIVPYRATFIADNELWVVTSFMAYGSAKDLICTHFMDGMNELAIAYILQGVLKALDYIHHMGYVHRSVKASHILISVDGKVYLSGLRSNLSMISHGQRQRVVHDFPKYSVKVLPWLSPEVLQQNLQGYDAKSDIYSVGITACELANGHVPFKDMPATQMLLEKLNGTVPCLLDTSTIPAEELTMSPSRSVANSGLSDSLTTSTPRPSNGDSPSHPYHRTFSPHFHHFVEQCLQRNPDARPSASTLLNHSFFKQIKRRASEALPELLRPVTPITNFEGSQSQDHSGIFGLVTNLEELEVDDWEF

Chain of Serine/threonine-protein kinase Nek9 (Homo sapiens) (Q8TD19 whole entry, the tested form may be a part): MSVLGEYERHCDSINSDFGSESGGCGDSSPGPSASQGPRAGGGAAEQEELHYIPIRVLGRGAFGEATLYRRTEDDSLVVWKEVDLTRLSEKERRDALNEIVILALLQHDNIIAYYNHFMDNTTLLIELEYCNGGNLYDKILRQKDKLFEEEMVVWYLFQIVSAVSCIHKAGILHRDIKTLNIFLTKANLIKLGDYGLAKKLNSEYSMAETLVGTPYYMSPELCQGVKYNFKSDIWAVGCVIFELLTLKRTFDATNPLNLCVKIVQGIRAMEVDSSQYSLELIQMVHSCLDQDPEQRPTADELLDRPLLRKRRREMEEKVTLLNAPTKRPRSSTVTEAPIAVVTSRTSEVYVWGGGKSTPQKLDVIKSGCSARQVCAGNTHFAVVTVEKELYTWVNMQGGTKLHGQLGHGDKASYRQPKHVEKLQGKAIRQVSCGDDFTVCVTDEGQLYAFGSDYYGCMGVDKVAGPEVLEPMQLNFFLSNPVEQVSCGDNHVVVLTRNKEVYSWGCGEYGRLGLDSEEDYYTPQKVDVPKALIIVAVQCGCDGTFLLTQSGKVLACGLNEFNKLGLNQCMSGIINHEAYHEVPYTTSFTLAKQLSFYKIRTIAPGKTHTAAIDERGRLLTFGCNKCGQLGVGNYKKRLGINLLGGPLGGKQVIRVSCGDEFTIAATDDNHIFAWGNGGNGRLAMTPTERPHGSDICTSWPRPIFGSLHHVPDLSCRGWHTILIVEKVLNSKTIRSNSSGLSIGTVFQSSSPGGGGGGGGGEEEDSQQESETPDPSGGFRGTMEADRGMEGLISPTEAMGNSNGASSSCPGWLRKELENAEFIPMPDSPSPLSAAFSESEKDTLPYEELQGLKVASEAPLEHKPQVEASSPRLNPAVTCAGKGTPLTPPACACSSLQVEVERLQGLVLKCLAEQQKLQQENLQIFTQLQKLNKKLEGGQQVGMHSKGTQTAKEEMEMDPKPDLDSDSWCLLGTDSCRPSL

CC(C)n1cc(-c2cc(-c3ccc(CN4CCOCC4)cc3)cnc2N)nn1
inhibition [1]: 25.5% | inhibition [2]: -8% | inhibition [3]: 20.5% | inhibition [4]: 17.4% | inhibition [5]: -2.1% | inhibition [6]: 26.2%
